According to PMC13021292, “Safety, tolerability and pharmacokinetics of DNDI‐6148, a novel agent for leishmaniasis: A randomized, controlled, single ascending dose study in healthy participants” (British Journal of Clinical Pharmacology, 2025):

Columns and labels:
[1] = Urinary excretion and renal clearance, single ascending oral dose study; format: in vivo, human; conditions: single oral 10–380 mg
Procedure: Urine was collected up to 72 h during the following intervals: pre‐dose, D1T0h – D1T12h, D1T12h – D2T24h, D2T24h – D3T48h and D3T48h – D4T72h. Urine was collected in containers containing 20 g citric acid monohydrate and stored at 4 °C for a maximum of 43 h. All urine passed during each interval period was combined and at the end of the interval, the pool of acidified urine was vigorously mixed; two aliquots were prepared, each with 1 mL of acidified urine and 1 mL of aqueous solution of 50 g/L bovine serum albumin (BSA) and 9 g/L NaCl.
Tubes of acidified urine/BSA samples were capped immediately for each time point and stored at −80 °C. Samples of both acidified plasma and acidified urine/BSA were shipped for bioanalysis on dry ice by a specialized carrier. Temperatures were monitored using a data logger during transport.

[2] = at 1 μM; cited from earlier work
[3] = cited from earlier work
[4] = Plasma pharmacokinetics, first-in-human single ascending oral dose study
Procedure: This was a FIH, phase I, double‐blind, parallel, single ascending dose (SAD) study of DNDI‐6148 arginine monohydrate, administered as an oral suspension to healthy male participants. Cohorts 1–8 each included eight participants and were administered 10, 20, 40, 80, 160, 220, 300 or 380 mg (free form) of DNDI‐6148 (in six participants) or placebo (two participants).
At the clinical site, a suspension was prepared extemporaneously by the pharmacist within 24 h prior to administration to participants (the timepoint for which stability data of the suspension were available). The IP powder was suspended in 30 mL ORA‐Sweet® (Paddock Laboratories, LLC, Minneapolis, USA) for taste and colour masking. Participants were administered between 4 and 25 mL of the suspensions, followed by the ingestion of 250 mL tap water. Opaque precision syringes were used to administer the solutions to minimize the risk of unblinding. To preclude any dietary effects on the PK of DNDI‐6148, participants fasted for 9 h before they received the IP or placebo. Treatments were administered under the supervision of the investigator at approximately 8 a.m. on Day 1.
Blood samples (6 mL per time point) for pharmacokinetic analyses were collected on Day 1 pre‐dose and at the following post‐dose time points: 0.5,1, 1.5 (cohorts 1–4 only), 2, 2.5, 3, 4, 5 (cohorts 5–8 only), 6, 9, 12, 24, 48 and 72 h. […] Within 30 min of blood collection, blood samples were centrifuged at 1500g for 10 min at 4 °C and 500 μL of plasma were transferred into pre‐labelled polypropylene tubes prefilled with phosphoric acid 2% (1:1, v:v). Tubes were capped immediately for each time point, and the plasma was frozen in an upright position at −80 °C for storage.
Concentrations of DNDI‐6148 were determined in acidified plasma and acidified urine/BSA mixture using a validated internally standardized liquid chromatography–tandem mass spectrometry (LC–MS/MS) assay with deuterated d4‐DNDI‐6148 as an internal standard. The lower limit of quantitation (LOQ) for DNDI‐6148 was 1 ng/mL in plasma and 10 ng/mL in urine.
Values that were below the LOQ before the first concentration equal or above LOQ were set to zero. Other values below the LOQ were not used to calculate the PK parameters. The area under the plasma concentration‐time curve from time zero (pre‐dose) to the time of last quantifiable concentration (AUC0‐last) was calculated using the linear‐log trapezoidal rule. Elimination half‐life (t1/2) was calculated by the equation ln2/λz, after visual inspection of the plasma concentration‐time profiles (considering a minimum of 3 data points, including the last measurable data point and excluding Cmax).
PK parameters were derived from plasma concentration vs. time data using non‐compartmental analysis in Phoenix WinNonlin® 8.1 (Certara Inc., Princeton, NJ, USA). Plasma concentration vs. time data and PK parameters were listed and summarized by dose level, using descriptive statistics. Mean concentrations were calculated only if at least ⅔ of the individual concentrations were above the lower LOQ (LLOQ). […] Planned sampling times were used to summarize plasma concentration data; actual sampling times were used in the derivation of PK parameters.

Cc1c(C(=O)Nc2ccc3c(c2)B(O)OC3)nnn1-c1ccccn1 [DNDI‐6148]
fraction of the dose excreted by the kidneys as unchanged drug [1]: below 0.2%
CLint in hepatocytes [2]: 0.5 μL/min/10^6 cells
unbound fraction in plasma ([3]; humans): 6.6%
plasma protein binding (bound) ([3]; species not stated): over 93%
CL/F ([4]; 10 mg single oral dose, GM): 2.89 L/h
Cmax ([4]; 10 mg single oral dose, GM): 155 ng/mL
Vd/F ([4]; 10 mg single oral dose, GM): 52.89 L
t1/2 ([4]; 10 mg single oral dose, GM): 12.7 h
CL/F ([4]; 10 mg single oral dose, Mean): 2.97 L/h
Cmax ([4]; 10 mg single oral dose, Mean): 156 ng/mL
Vd/F ([4]; 10 mg single oral dose, Mean): 53.52 L
t1/2 ([4]; 10 mg single oral dose, Mean): 12.93 h
tmax ([4]; 10 mg single oral dose, Mean): 4 h
CL/F ([4]; 20 mg single oral dose, GM): 2.76 L/h
Cmax ([4]; 20 mg single oral dose, GM): 292 ng/mL
Vd/F ([4]; 20 mg single oral dose, GM): 57.51 L
t1/2 ([4]; 20 mg single oral dose, GM): 14.42 h
CL/F ([4]; 20 mg single oral dose, Mean): 2.84 L/h
Cmax ([4]; 20 mg single oral dose, Mean): 296 ng/mL
Vd/F ([4]; 20 mg single oral dose, Mean): 57.82 L
t1/2 ([4]; 20 mg single oral dose, Mean): 14.73 h
tmax ([4]; 20 mg single oral dose, Mean): 4 h
CL/F ([4]; 40 mg single oral dose, GM): 2.17 L/h
Cmax ([4]; 40 mg single oral dose, GM): 585 ng/mL
Vd/F ([4]; 40 mg single oral dose, GM): 61.18 L
t1/2 ([4]; 40 mg single oral dose, GM): 19.52 h
CL/F ([4]; 40 mg single oral dose, Mean): 2.36 L/h
Cmax ([4]; 40 mg single oral dose, Mean): 598 ng/mL
Vd/F ([4]; 40 mg single oral dose, Mean): 64.01 L
t1/2 ([4]; 40 mg single oral dose, Mean): 19.91 h
tmax ([4]; 40 mg single oral dose, Mean): 5 h
CL/F ([4]; 80 mg single oral dose, GM): 2.17 L/h
Cmax ([4]; 80 mg single oral dose, GM): 1011 ng/mL
Vd/F ([4]; 80 mg single oral dose, GM): 69.86 L
t1/2 ([4]; 80 mg single oral dose, GM): 22.31 h
CL/F ([4]; 80 mg single oral dose, Mean): 2.51 L/h
Cmax ([4]; 80 mg single oral dose, Mean): 1021 ng/mL
Vd/F ([4]; 80 mg single oral dose, Mean): 71.15 L
t1/2 ([4]; 80 mg single oral dose, Mean): 25.43 h
tmax ([4]; 80 mg single oral dose, Mean): 9 h
CL/F ([4]; 160 mg single oral dose, GM): 2.65 L/h
Cmax ([4]; 160 mg single oral dose, GM): 1815.3 ng/mL
Vd/F ([4]; 160 mg single oral dose, GM): 68.6 L
t1/2 ([4]; 160 mg single oral dose, GM): 17.92 h
CL/F ([4]; 160 mg single oral dose, Mean): 2.83 L/h
Cmax ([4]; 160 mg single oral dose, Mean): 1825.3 ng/mL
Vd/F ([4]; 160 mg single oral dose, Mean): 70.79 L
t1/2 ([4]; 160 mg single oral dose, Mean): 18.28 h
tmax ([4]; 160 mg single oral dose, Mean): 5 h
CL/F ([4]; 220 mg single oral dose, GM): 2.42 L/h
Cmax ([4]; 220 mg single oral dose, GM): 2285.4 ng/mL
Vd/F ([4]; 220 mg single oral dose, GM): 80.62 L
t1/2 ([4]; 220 mg single oral dose, GM): 23.10 h
Cmax ([4]; 220 mg single oral dose, Mean): 2512.3 ng/mL
Vd/F ([4]; 220 mg single oral dose, Mean): 81.32 L
t1/2 ([4]; 220 mg single oral dose, Mean): 24.17 h
tmax ([4]; 220 mg single oral dose, Mean): 5.50 h
CL/F ([4]; 300 mg single oral dose, GM): 3.02 L/h
Cmax ([4]; 300 mg single oral dose, GM): 2959.3 ng/mL
Vd/F ([4]; 300 mg single oral dose, GM): 99.99 L
t1/2 ([4]; 300 mg single oral dose, GM): 22.91 h
tmax ([4]; 300 mg single oral dose, GM): 5.12 h
CL/F ([4]; 300 mg single oral dose, Mean): 3.28 L/h
Cmax ([4]; 300 mg single oral dose, Mean): 3073.5 ng/mL
Vd/F ([4]; 300 mg single oral dose, Mean): 104.45 L
t1/2 ([4]; 300 mg single oral dose, Mean): 23.39 h
tmax ([4]; 300 mg single oral dose, Mean): 5.00 h
CL/F ([4]; 380 mg single oral dose, GM): 2.22 L/h
